In ChEMBL document CHEMBL5154749 (Eur J Med Chem, 2022):
Calls of active or inactive are those of the source. The calls are words filed in the database; no cut-off is given here.

Columns and labels:
HT-29 [1] = test: Induction of apoptosis in human HT-29 cells assessed as viable cells at 3 uM measured after 48 hrs in presence of AZD1390 by Annexin V-FITC/Propidium iodide staining based flow cytometry analysis (reference value: 95.33%); type: functional; settings: read-out: Activity
HT-29 [2] = test: Induction of apoptosis in human HT-29 cells assessed as late apoptotic cells at 1 uM measured after 48 hrs by Annexin V-FITC/Propidium iodide staining based flow cytometry analysis (reference value: 0.71%); type: functional
[3] = Tmax in Sprague-Dawley rat at 5 mg/kg, iv measured at 0.083 to 24 hrs by LC-MS/MS method; type: ADME, organism-based; settings: in vivo, time 0.083-24 hrs
LoVo [4] = test: Induction of apoptosis in human LoVo cells deficient in ATM assessed as viable cells at 0.3 uM measured after 24 hrs by Annexin V-FITC/Propidium iodide staining based flow cytometry analysis (reference value: 91.64%); type: functional; settings: read-out: Activity
NCI-H23 = test: Antiproliferative activity against ATM-deficient human NCI-H23 cells assessed as reduction in cell viability incubated for 72 hrs by MTT assay; type: functional, cell-based; settings: dose 0.001-100 µM, DDE = dose-dependent effect
Granta-519 = test: Antiproliferative activity against ATM-deficient human Granta-519 cells assessed as reduction in cell viability incubated for 72 hrs by MTT assay; type: functional, cell-based; settings: dose 0.001-100 µM, DDE = dose-dependent effect
[5] = Toxicity in NOD/SCID mouse xenografted with human LoVo cells assessed as damage in liver at 50 to 100 mg/kg, po administered bid for 30 days measured after 2 hrs post last dose by H and E staining method; type: organism-based; settings: in vivo, 720 h, dose 50-100 mg/kg, time 30 day
[6] = AUC (0 to infinity) in Sprague-Dawley rat at 10 mg/kg, po measured at 0.083 to 24 hrs by LC-MS/MS method; type: ADME, organism-based; parameters: time lower 0.083 hrs, dose 10 mg/kg, time upper 24 hrs, route po; settings: in vivo
[7] = target: T1, Serine/threonine-protein kinase ATR (Homo sapiens, UniProt Q13535); test: Inhibition of ATR signalling in ATM-deficient human LoVo cells assessed as inhibition of Chk1 phosphorylation incubated for 1 hr followed by hydroxyurea addition measured after 4 hrs by Western blot analysis; type: cell-based; settings: dose <= 3.0 µM, time 5.0 hrs, DDE = dose-dependent effect
SW-620 = test: Antiproliferative activity against ATM-deficient human SW-620 cells assessed as reduction in cell viability incubated for 72 hrs by MTT assay; type: functional, cell-based; settings: dose 0.001-100 µM, DDE = dose-dependent effect
HT-29 [8] = test: Induction of apoptosis in human HT-29 cells assessed as early apoptotic cells at 1 uM measured after 48 hrs in presence of AZD1390 by Annexin V-FITC/Propidium iodide staining based flow cytometry analysis (reference value: 3.81%); type: functional
LoVo [9] = test: Antimigratory activity in human LoVo cells assessed as suppression of cell migration measured up to 48 hrs by wound healing assay; type: functional, cell-based; settings: dose <= 1.0 µM, DDE = dose-dependent effect
HT-29 [10] = test: Induction of apoptosis in human HT-29 cells assessed as viable cells at 1 uM measured after 48 hrs in presence of AZD1390 by Annexin V-FITC/Propidium iodide staining based flow cytometry analysis (reference value: 95.33%); type: functional; settings: read-out: Activity
HT-29 [11] = test: Antiproliferative activity against human HT-29 cells assessed as reduction in cell viability incubated for 72 hrs in presence of AZD1390 by MTT assay; type: functional, cell-based; settings: HT-29, 72 h
LoVo [12] = test: Induction of apoptosis in human LoVo cells deficient in ATM assessed as necrotic cells at 1 uM measured after 24 hrs by Annexin V-FITC/Propidium iodide staining based flow cytometry analysis (reference value: 0.84%); type: functional
[13] = target: T1, Serine/threonine-protein kinase ATR; test: In vivo inhibition of ATR in human LoVo cells xenografted in NOD/SCID mouse assessed as inhibition of Chk1 phosphorylation at 50 to 100 mg/kg, po administered twice a day for 30 days by Western blot analysis; settings: dose 50-100 mg/kg, time 30.0 day
[14] = target: T1, Serine/threonine-protein kinase ATR; test: Inhibition of ATR signalling in ATM-deficient human LoVo cells assessed as change in expression of Chk1 at up to 3 uM incubated for 1 hr followed by hydroxyurea addition measured after 4 hrs by Western blot analysis; type: cell-based; settings: time 5.0 hrs
HT-29 [15] = test: Induction of apoptosis in human HT-29 cells assessed as late apoptotic cells at 0.3 uM measured after 48 hrs by Annexin V-FITC/Propidium iodide staining based FACS cytometry analysis (reference value: 0.71%); type: functional
LoVo [16] = test: Antimigratory activity in human LoVo cells assessed as suppression of cell migration measured at up to 1 uM by wound healing assay; type: functional, cell-based; settings: time <= 48.0 hrs, TDE = time-dependent effect
[17] = Clearance in Sprague-Dawley in rat at 5 mg/kg, iv measured at 0.083 to 24 hrs by LC-MS/MS method; type: ADME, organism-based; settings: in vivo, time 0.083-24 hrs

T1 sequence (Q13535 whole entry, looked up): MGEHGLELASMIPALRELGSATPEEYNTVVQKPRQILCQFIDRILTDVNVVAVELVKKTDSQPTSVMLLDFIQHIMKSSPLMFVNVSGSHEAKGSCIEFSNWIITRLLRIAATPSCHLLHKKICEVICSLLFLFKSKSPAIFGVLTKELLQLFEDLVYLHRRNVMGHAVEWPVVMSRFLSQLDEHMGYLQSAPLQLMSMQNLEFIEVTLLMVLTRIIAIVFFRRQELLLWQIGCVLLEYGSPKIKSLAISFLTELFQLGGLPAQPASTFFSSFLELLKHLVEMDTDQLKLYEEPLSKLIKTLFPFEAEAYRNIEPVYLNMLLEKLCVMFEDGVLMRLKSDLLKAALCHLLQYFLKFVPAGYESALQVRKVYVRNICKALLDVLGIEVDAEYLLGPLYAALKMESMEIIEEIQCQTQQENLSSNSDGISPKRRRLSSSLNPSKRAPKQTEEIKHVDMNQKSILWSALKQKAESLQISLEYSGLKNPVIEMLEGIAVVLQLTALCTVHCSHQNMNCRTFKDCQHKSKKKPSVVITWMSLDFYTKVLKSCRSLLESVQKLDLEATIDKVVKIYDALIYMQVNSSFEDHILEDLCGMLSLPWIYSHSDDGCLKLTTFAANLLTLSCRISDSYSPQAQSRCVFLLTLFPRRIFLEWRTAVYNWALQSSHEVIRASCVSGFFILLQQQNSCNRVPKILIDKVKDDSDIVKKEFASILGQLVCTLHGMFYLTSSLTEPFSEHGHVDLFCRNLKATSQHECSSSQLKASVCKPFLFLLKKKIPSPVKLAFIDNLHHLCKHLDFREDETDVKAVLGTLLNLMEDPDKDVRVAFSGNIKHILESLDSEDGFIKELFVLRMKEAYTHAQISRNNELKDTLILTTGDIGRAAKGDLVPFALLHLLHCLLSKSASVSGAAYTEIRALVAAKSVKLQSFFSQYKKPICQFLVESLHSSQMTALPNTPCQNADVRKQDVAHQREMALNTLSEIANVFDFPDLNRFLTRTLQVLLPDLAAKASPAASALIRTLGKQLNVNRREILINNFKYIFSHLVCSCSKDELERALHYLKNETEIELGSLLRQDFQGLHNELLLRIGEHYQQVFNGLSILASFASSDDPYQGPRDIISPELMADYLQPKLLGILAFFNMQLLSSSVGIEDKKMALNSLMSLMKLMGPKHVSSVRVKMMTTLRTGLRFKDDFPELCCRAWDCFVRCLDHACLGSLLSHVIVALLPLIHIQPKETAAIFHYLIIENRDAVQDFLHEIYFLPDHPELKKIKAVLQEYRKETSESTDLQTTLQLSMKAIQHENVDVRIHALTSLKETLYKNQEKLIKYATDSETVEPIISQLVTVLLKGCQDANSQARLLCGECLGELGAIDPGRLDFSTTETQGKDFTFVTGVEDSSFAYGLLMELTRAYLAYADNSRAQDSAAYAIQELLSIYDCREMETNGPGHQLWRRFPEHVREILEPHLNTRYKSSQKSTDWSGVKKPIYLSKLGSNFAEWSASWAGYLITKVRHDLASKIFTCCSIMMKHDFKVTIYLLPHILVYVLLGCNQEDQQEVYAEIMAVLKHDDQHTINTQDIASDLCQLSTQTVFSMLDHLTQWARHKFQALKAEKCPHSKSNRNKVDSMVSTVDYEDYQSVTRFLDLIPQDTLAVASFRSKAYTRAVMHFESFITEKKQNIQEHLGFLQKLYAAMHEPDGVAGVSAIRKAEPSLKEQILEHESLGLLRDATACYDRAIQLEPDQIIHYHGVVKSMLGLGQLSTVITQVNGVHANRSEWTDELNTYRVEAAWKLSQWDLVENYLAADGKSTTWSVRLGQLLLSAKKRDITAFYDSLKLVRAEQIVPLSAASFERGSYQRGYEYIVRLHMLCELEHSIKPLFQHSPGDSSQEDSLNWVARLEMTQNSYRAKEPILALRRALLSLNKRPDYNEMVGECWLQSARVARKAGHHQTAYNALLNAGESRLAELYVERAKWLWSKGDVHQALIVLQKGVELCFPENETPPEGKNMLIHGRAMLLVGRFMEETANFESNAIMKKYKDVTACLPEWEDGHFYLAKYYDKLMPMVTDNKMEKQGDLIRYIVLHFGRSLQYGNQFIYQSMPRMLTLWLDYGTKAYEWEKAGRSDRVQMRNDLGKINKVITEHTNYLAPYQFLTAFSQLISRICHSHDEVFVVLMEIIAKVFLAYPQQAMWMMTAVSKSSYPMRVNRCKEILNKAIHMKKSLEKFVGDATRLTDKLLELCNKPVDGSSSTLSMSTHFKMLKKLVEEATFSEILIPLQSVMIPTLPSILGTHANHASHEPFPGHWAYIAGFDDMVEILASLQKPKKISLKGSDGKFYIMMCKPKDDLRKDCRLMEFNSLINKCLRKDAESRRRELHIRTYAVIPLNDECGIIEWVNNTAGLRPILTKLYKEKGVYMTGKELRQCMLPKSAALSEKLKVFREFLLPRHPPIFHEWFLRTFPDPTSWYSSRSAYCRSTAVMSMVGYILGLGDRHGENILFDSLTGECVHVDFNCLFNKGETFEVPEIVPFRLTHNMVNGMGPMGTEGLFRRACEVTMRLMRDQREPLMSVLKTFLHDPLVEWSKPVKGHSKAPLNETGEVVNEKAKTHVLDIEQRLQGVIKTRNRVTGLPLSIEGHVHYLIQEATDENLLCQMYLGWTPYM

Compound: C[C@@H]1COCCN1c1nc(-c2cccc3[nH]ccc23)nc2ccc(-c3ccnn3C)cc12
- viability at 3 µM (HT-29 [1]): 58%
- Activity (HT-29 [2]): 1.92%
- Tmax [3]: 4.8 min
- viability at 0.3 µM (LoVo [4]): 55.9%
- Activity (NCI-H23): Dde
- Activity (Granta-519): Dde
- Activity [5]: Non-Toxic
- AUC(0-inf) [6]: 2720 ng·h/mL
- inhibition [7]: Dde
- Activity (SW-620): Dde
- Activity (HT-29 [8]): 7.45%
- Activity (LoVo [9]): Dde
- viability at 1 µM (HT-29 [10]): 80.9%
- IC50 (HT-29 [11]): 439 nM
- Activity (LoVo [12]): 2.39%
- Activity [13]: Active
- inhibition [14]: Active
- Activity (HT-29 [15]): 1.51%
- Activity (LoVo [16]): Tde
- clearance [17]: 26.5 mL/min/kg
